Assay results: patent publication US20200138827A1, “SMALL MOLECULE MODULATORS OF HUMAN STING” (Curadev Pharma Limited, priority 2017, published 2020)
Like-named read-outs stand apart in the source and are kept apart here.

Legend:
WT/R232 STING protein = molecular target: T1, WT/R232 STING protein (Homo sapiens, UniProt Q86WV6, H232R); experiment: Luciferase reporter assay in HEK293T-hSTING-Luciferase cells, WT/R232; format: cell-based; details: 20 hr stimulation, read-out: R232 Activity (EC50 range)
T1 construct: host or cells: HEK293T
Summary of the method: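 […], read by luminescence from supernatant after 20 h compound stimulation. Cells: clonally selected HEK293T (5×10^5/well) stably carrying WT/R232 human STING and a luciferase reporter under five tandem ISREs fused to an ISG54 minimal promoter.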

hSTING(H232) = molecular target: T2, hSTING(H232) (Homo sapiens, UniProt Q86WV6); experiment: Luciferase reporter assay in HEK293T-hSTING-Luciferase cells, H232 polymorph; format: cell-based; details: 20 hr stimulation, read-out: H232 activity (EC50 range)
T2 construct: host or cells: HEK293T
Description: (§1) • a) Stable STING expressing cells—Stable HEK293T STING-expressing cell lines were generated using plasmids purchased from Invivogen, Calif., USA, that contain STING cDNA cloned into the pUNO-1 vector under hEF1-HTLV promoter and containing the Blasticidin selection cassette. The plasmids hSTING(R232), hSTING(H232), hSTING(HAQ) were directly procured from Invivogen while hSTING (AQ) and hSTING (Q) were derived from hSTING(HAQ) and hSTING (R232) plasmids respectively by using a PCR based site directed mutagenesis method. These vectors were individually transfected into HEK293T cells using Lipofectamine (Invitrogen) and transfected cells were selected under Blasticidin selection. These transfected cells were further subjected to clonal selection using the limiting dilution method to obtain clonally pure populations of HEK cells transfected with each of the above mentioned human STING variants. Only those clones were selected in which ligand independent activation of STING was minimal. • b) Stable Luciferase reporter gene expressing cells—Stable HEK293T Luciferase reporter gene expressing cell lines were generated using pCDNA4 plasmids under an IRF-inducible promoter. This promoter is comprised of five tandem interferon-stimulated response elements (ISRE) fused to an ISG54 minimal promoter. This vector was transfected into HEK293T cells using Lipofectamine (Invitrogen) and transfected cells were selected under Zeocin selection. These transfected cells were further subjected to clonal selection using the limiting dilution method to obtain clonally pure populations of HEK cells transfected the Luciferase reporter construct. Only those clones were selected in which ligand independent induction of luciferase was minimal.
(§2) 5×10^5 clonally selected HEK293T-hSTING-Luciferase cells were seeded in 384-well plates in growth medium and stimulated with novel compounds. After 20 hr of stimulation supernatant were removed and secretary reporter gene activity were measured using the Quanti-Luc detection system (Invivogen) on a Spectramax i3X luminometer.
(§3) The 5 major polymorphisms of human STING are shown in FIG. 1, with their prevalence in human populations indicated.

hSTING(HAQ) = molecular target: T3, hSTING(HAQ) (Homo sapiens, UniProt Q86WV6, G230A/H232R/R293Q/R71H); experiment: Luciferase reporter assay in HEK293T-hSTING-Luciferase cells, HAQ polymorph; format: cell-based; details: 20 hr stimulation, read-out: HAQ activity (EC50 range)
T3 construct: host or cells: HEK293T
Description: as §1, §2, §3

IRF pathway = experiment: Reporter gene expression assay in THP1-Dual cells, IRF axis (secreted Lucia luciferase); format: cell-based, human; details: read-out: THP-IRF activity (EC50 range)
Summary of the method: (§4)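 THP-1-derived cells carrying inducible NF-κB-SEAP and IRF-Lucia reporters, seeded at 5×10^5 and stimulated with compounds. After […], supernatant SEAP read with QUANTI-Blue and Lucia luciferase with QUANTI-Luc.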

NF-κB pathway = experiment: Reporter gene expression assay in THP1-Dual cells, NFkB axis (secreted SEAP); format: cell-based, human; details: read-out: THP-NFKB activity (EC50 range)
Summary of the method: as §4

T1 sequence (Q86WV6 whole entry H232R): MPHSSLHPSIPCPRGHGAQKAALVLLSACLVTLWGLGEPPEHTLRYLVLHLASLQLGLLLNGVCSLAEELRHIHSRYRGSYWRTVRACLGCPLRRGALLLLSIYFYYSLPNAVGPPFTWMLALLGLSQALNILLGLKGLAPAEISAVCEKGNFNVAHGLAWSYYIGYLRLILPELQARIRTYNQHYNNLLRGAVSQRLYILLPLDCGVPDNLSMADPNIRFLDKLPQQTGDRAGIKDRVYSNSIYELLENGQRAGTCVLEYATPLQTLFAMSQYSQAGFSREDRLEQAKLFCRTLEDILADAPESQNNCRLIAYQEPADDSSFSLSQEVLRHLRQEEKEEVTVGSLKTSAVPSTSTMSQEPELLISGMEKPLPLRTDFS
T2 sequence (Q86WV6 whole entry): as the sequence (Q86WV6 whole entry H232R) above, with R232H counted along it
T3 sequence (Q86WV6 whole entry R71H/G230A/H232R/R293Q): as the sequence (Q86WV6 whole entry H232R) above, with R71H, G230A, R293Q counted along it

| Compound | EC50 (WT/R232 STING protein) [µM] | EC50 (hSTING(H232)) [µM] | EC50 (hSTING(HAQ)) [µM] | EC50 (IRF pathway; Homo sapiens, THP1-Dual) [µM] | EC50 (NF-κB pathway; Homo sapiens, THP1-Dual) [µM] | EC50 (IRF pathway) [µM] | EC50 (NF-κB pathway) [µM] |
| --- | --- | --- | --- | --- | --- | --- | --- |
| O=C(NCc1ccco1)c1ccc2c(c1)N(Cc1cc(F)cc(F)c1)C(=O)CS2 [Example 87, 4-(3,5-difluorobenzyl)-N-(furan-2-ylmethyl)-3-oxo-3,4-dihydro-2H-benzo[b][1,4] thiazine-6-carboxamide] | < 1 | 1 to 10 | > 10 | > 10 | > 10 | – | – |
| C[C@@H]1Oc2ccc(C(=O)NCc3c(F)cc(F)cc3F)cc2N(Cc2cc(F)cc(F)c2)C1=O [Example 234, (S)-4-(3,5-difluorobenzyl)-2-methyl-3-oxo-N-(2,4,6-trifluorobenzyl)-3,4-dihydro-2H-benzo[b-1,4]oxazine-6-carboxamide] | < 1 | 1 to 10 | 1 to 10 | > 10 | > 10 | – | – |
| O=C(NCc1ccco1)c1ccc2c(n1)N(Cc1c(F)cccc1Cl)C(=O)CS2 [Example 181, 4-(2-chloro-6-fluorobenzyl)-N-(furan-2-ylmethyl)-3-oxo-3,4-dihydro-2H-pyrido[3,2-b-1,4]thiazine-6-carboxamide] | 1 to 10 | > 10 | > 10 | > 10 | > 10 | – | – |
| O=C(NCc1cc2ccccc2o1)c1ccc2c(c1)N(Cc1c(F)cccc1Cl)C(=O)CS2 [Example 40, N-(benzofuran-2-ylmethyl)-4-(2-chloro-6-fluorobenzyl)-3-oxo-3,4-dihydro-2H-benzo[b-1,4]thiazine-6-carboxamide] | < 1 | 1 to 10 | 1 to 10 | 1 to 10 | 1 to 10 | – | – |
| O=C(NCc1c(F)cc(F)cc1F)c1ccc2c(c1)N(Cc1ccncc1)C(=O)CS2 [Example 39, 3-oxo-4-(pyridin-4-ylmethyl)-N-(2,4,6-trifluoro-benzyl)-3,4-dihydro-2H-benzo[b-1,4]thiazine-6-carboxamide] | 1 to 10 | 1 to 10 | 1 to 10 | > 10 | > 10 | – | – |
| CC1Sc2ccc(C(=O)NCc3ccco3)nc2N(Cc2cc(F)cc(F)c2)C1=O (centres unmarked) [Example 189, 4-(3,5-difluorobenzyl)-N-(furan-2-ylmethyl)-2-methyl-3-oxo-3,4-dihydro-2H-pyrido[3,2-b-1,4]thiazine-6-carboxamide] | < 1 | 1 to 10 | 1 to 10 | > 10 | > 10 | – | – |
| C[C@@H]1Oc2ccc(C(=O)NCc3c(F)cc(F)cc3F)cc2N(Cc2cc(F)cc(F)c2)C1=O [Example 243, (S)-4-(3,5-difluorobenzyl)-2-methyl-3-oxo-N-(2,4,6-trifluorobenzyl)-3,4-dihydro-2H-benzo[b][1,4] oxazine-6-carboxamide] | < 1 | < 1 | < 1 | – | – | > 10 | > 10 |
| CC1Sc2ccc(C(=O)NCc3c(F)cc(F)cc3F)cc2N(Cc2c(F)cccc2Cl)C1=O (centres unmarked) [Example 138, 4-(2-chloro-6-fluorobenzyl)-2-methyl-3-oxo-N-(2,4,6-trifluorobenzyl)-3,4-dihydro-2H-benzo[b-1,4]thiazine-6-carboxamide] | < 1 | < 1 | < 1 | 1 to 10 | 1 to 10 | – | – |
| O=C(NCc1ccc(F)cc1F)c1ccc2c(c1)N(Cc1c(F)cccc1Cl)C(=O)CS2 [Example 34, 4-(2-chloro-6-fluorobenzyl)-N-(2,4-difluorobenzyl)-3-oxo-3,4-dihydro-2H-benzo[b-1,4]thiazine-6-carboxamide] | < 1 | < 1 | 1 to 10 | > 10 | > 10 | – | – |
| CC1Sc2ccc(C(=O)NCc3ccc(F)cc3F)nc2N(Cc2c(F)cccc2Cl)C1=O (centres unmarked) [Example 187, 4-(2-chloro-6-fluorobenzyl)-N-(2,4-difluorobenzyl)-2-methyl-3-oxo-3,4-dihydro-2H-pyrido[3,2-b-1,4]thiazine-6-carboxamide] | 1 to 10 | > 10 | > 10 | > 10 | > 10 | – | – |
| O=C(NCc1cc2ccccc2o1)c1ccc2c(n1)N(Cc1cc(F)cc(F)c1)C(=O)CC2 [Example 281, N-(benzofuran-2-ylmethyl)-8-(3,5-difluorobenzyl)-7-oxo-5,6,7,8-tetrahydro-1,8-naphthyridine-2-carboxamide] | 1 to 10 | 1 to 10 | 1 to 10 | > 10 | > 10 | – | – |
| C=CCC1Sc2ccc(C(=O)NCc3c(F)cc(F)cc3F)cc2N(Cc2c(F)cccc2Cl)C1=O (centres unmarked) [Example 146, 2-allyl-4-(2-chloro-6-fluorobenzyl)-3-oxo-N-(2,4,6-trifluorobenzyl)-3,4-dihydro-2H-benzo[b-1,4]thiazine-6-carboxamide] | < 1 | 1 to 10 | 1 to 10 | > 10 | > 10 | – | – |
| CC1Sc2ccc(C(=O)NCc3cc4ccccc4o3)nc2N(Cc2c(F)cccc2Cl)C1=O (centres unmarked) [Example 188, N-(benzofuran-2-ylmethyl)-4-(2-chloro-6-fluorobenzyl)-2-methyl-3-oxo-3,4-dihydro-2H-pyrido[3,2-b-1,4]thiazine-6-carboxamide] | < 1 | 1 to 10 | 1 to 10 | > 10 | 1 to 10 | – | – |
| CC1Sc2ncc(C(=O)NCc3cc4ccccc4o3)cc2N(Cc2cc(F)cc(F)c2)C1=O (centres unmarked) [Example 193, N-(benzofuran-2-ylmethyl)-1-(3,5-difluorobenzyl)-3-methyl-2-oxo-2,3-dihydro-1H-pyrido[2,3-b][1,4]thiazine-7-carboxamide] | < 1 | 1 to 10 | 1 to 10 | – | – | > 10 | > 10 |
| C[C@H]1Oc2ccc(C(=O)NCc3c(F)cc(F)cc3F)cc2N(Cc2cc(F)cc(F)c2)C1=O [Example 242, (R)-4-(3,5-difluorobenzyl)-2-methyl-3-oxo-N-(2,4,6-trifluorobenzyl)-3,4-dihydro-2H-benzo[b][1,4] oxazine-6-carboxamide] | < 1 | > 10 | 1 to 10 | – | – | > 10 | > 10 |
| CC1Cc2ccc(C(=O)NCc3c(F)cc(F)cc3F)cc2N(Cc2cc(F)cc(F)c2)S1(=O)=O (centres unmarked) [Example 285, 1-(3,5-Difluorobenzyl)-3-methyl-N-(2,4,6-trifluorobenzyl)-3,4-dihydro-1H-benzo[c][1,2]thiazine-7-carboxamide 2,2-dioxide] | 1 to 10 | 1 to 10 | 1 to 10 | > 10 | > 10 | – | – |
| CCCC1Sc2ccc(C(=O)NCc3c(F)cc(F)cc3F)cc2N(Cc2c(F)cccc2Cl)C1=O (centres unmarked) [Example 147, 4-(2-chloro-6-fluorobenzyl)-3-oxo-2-propyl-N-(2,4,6-trifluorobenzyl)-3,4-dihydro-2H-benzo[b-1,4]thiazine-6-carboxamide] | < 1 | 1 to 10 | 1 to 10 | > 10 | > 10 | – | – |
| C[C@H]1Oc2ccc(C(=O)NCc3c(F)cc(F)cc3F)cc2N(Cc2cc(F)cc(F)c2)C1=O [Example 233, (R)-4-(3,5-difluorobenzyl)-2-methyl-3-oxo-N-(2,4.,6-trifluorobenzyl)-3,4-dihydro-2H-benzo[b-1,4]oxazine-6-carboxamide] | < 1 | 1 to 10 | 1 to 10 | > 10 | > 10 | – | – |
| O=C(NCc1ccco1)c1ccc2c(c1)N(Cc1c(Cl)cccc1Cl)C(=O)CS2 [Example 93, 4-(2,6-dichlorobenzyl)-N-(furan-2-ylmethyl)-3-oxo-3,4-dihydro-2H-benzo[b-1,4]thiazine-6-carboxamide] | 1 to 10 | 1 to 10 | > 10 | > 10 | > 10 | – | – |
